Source: US20170056496A1 (Sanofi, priority 2008, published 2017)
Where two headings read alike, the source gives them in different places.

Columns and labels:
[1] = for Comments: toxicity statement: toxicity = ≧20% body weight loss or 10% drug death
murine CD38 = target: T1, murine CD38 (Mus musculus, UniProt P56528); assay: Cross-reactivity of the antibody with murine CD38; type: binding
T1 sequence (P56528 1-304): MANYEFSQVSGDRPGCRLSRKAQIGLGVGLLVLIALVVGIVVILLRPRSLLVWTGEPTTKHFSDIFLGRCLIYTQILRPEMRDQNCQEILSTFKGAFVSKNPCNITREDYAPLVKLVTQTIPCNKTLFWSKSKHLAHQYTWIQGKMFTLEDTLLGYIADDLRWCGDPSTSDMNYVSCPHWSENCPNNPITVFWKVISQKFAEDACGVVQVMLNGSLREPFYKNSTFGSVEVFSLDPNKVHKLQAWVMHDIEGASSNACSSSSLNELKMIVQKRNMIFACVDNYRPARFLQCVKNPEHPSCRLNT

[2] = CPA alone, 286.1 mg/kg/inj (total 572.2), listed as CPA, 286.1 mg/kg

Compound | deaths (deaths out of mice) [1, 2] | Comments: toxicity statement ([1]; CPA alone, 286.1 mg/kg/inj (total 572.2), 286.1 mg/kg) | Comments: toxicity statement [1, 2] | deaths, percent of mice ([1]; CPA alone, 286.1 mg/kg/injection) [%] | % BWC at nadir (day) ([1]; CPA alone, IV day 11, 15, 68.2 mg/kg/inj (total 136.4), nadir day 18) | % BWC at nadir (day) ([1]; CPA alone, IV day 11, 15, 110.0 mg/kg/inj (total 220.0), nadir day 17) | % BWC at nadir (day) ([1]; CPA alone, IV day 11, 15, 286.1 mg/kg/inj (total 572.2), nadir day 20) | Comments: toxicity statement (HNTD = highest nontoxic dose) ([1]; CPA alone, […] (total 354.8)) | cross-reactivity with murine CD38 (murine CD38) | % BWC at nadir (day) ([1]; mouse, in vivo, iv, 40 mg/kg)
O=P1(N(CCCl)CCCl)NCCCO1 (stereo not shown) [cyclophosphamide] | ⅗ | Toxicity | Toxic | 60 | −3.8 (18) % | −5.2 (17) % | −21.2 (20) % | HNTD |  | 
hu38SB19: humanized anti-CD38 monoclonal antibody 38SB19; VH SEQ ID NO: 66, VL chosen from SEQ ID NOS: 62 and 64 |  |  |  |  |  |  |  |  | lack of cross-reactivity | +5.4 (19) %
